According to patent publication US20030152536A1, “Cosmetic preparations containing waltheria indica extracts” (priority 2000, published 2003):

Tested on: melanin index of forearm skin
Experiment: In vivo lightening of color on the forearm of 41 volunteers with Asiatic skin color (melanin index D56/D0)
Design: species or system human
Details: D0 melanin index before, D56 after treatment
Protocol: The effectiveness of the preparations according to the invention by comparison with known preparations was tested in vitro by inhibition of the synthesis of melanin in B 16 melanocytes. The concentration of the active principles (in % by weight) in the cell culture medium and the inhibition in %-rel. in relation to the blank value are shown. An in vivo test was also carried out by measuring the lightening of color on the extensor muscle side of the forearm of 41 volunteers with Asiatic skin color. The depigmenting activity D56/D0 is shown, D0 standing for the melanin index before the treatment and D56 for the index after the treatment.

SMILES: OC[C@H]1O[C@@H](Oc2ccc(O)cc2)[C@H](O)[C@@H](O)[C@@H]1O [Arbutin]
- D56/D0 (concentration 0.1): 54
- D56/D0 (concentration 0.3): 30
